Source: patent US20190187129A1, “CANCER MODELING PLATFORMS AND METHODS OF USING THE SAME” (Wake Forest University Health Sciences, priority 2016, published 2019)
“Also recorded” adds a separate entry of the source.

What was measured:
[1] = tested on: mesothelioma organoids; assay: Biomarker-driven drug study on patient organoids (MTS, Annexin V/Ki67 IHC, H&E); type: cell-based, human; conditions: 0.1 μM, 1 μM, 10 μM; 96 hours
Method: (§1) 5 μm thick organoid sections were created from paraffin-embedded constructs, and then deparaffinized for staining. IHC was used to visualize biomarkers cytokeratin 5/6 (CK5/6), calretinin, and thrombomodulin. Blocking was performed by incubation under Dako Protein Block for 15 minutes. Primary antibodies CK5/6 (Abcam, ab17133, raised in mouse) and calretinin (Abcam, ab702, raised in rabbit) or CK5/6 and thrombomodulin (Abcam, ab109189, raised in rabbit) were applied to the sections on the slides at a 1:200 dilution in Dako Antibody Diluent and incubated at room temperature for 1 hour. Next, secondary Alexa Fluor 488 or Alexa Fluor 594 antibodies with appropriate species reactivity were applied to all samples at 1:200 in Dako Antibody Diluent and left at room temperature for 1 hour (anti-mouse Alexa Fluor 488 and anti-rabbit Alexa Fluor 594, Life Technologies, Carlsbad, Calif., A-11070). Sections were then incubated with Dapi for 5 minutes prior to coverslipping. […] Fluorescence images were taken using a Leica DM400B Compound Microscope and overlaid for analysis.
(§2) Tumor constructs were biofabricated once more, after which they were maintained for 3 days prior to drug screening. […] Drug effects were quantified by MTS assays and immunohistochemistry. MTS assays (CellTiter 96 One Solution Reagent Promega, Madison, Wis.) determined relative cell number by quantifying mitochondrial metabolism. Absorbance values were determined on a Molecular Devices SpectrumMax M5 (Molecular Devices) tunable plate reader system at a wavelength of 490 nm.
(§3) Immunohistochemisty staining was performed using biomarkers Annexin V and Ki67 on 5 μm thick organoid sections. […] Fluorescence images were taken using a Leica DM400B Compound Microscope, images were taken of sections next to each other in GFP for Annexin V and Ki67 and overlaid for analysis; Annexin V images were colored red (medium grey in black and white images) and Ki67 images were colored green (light grey in black and white images).

[2] = tested on: HCT116 organoids; assay: Biomarker-driven drug study on control organoids (MTS, Annexin V/Ki67 IHC, H&E); type: cell-based; conditions: 0.1 μM, 1 μM, 10 μM; 96 hours
Method: as §1, §2, §3

[3] = tested on: HCT116 cells; conditions: literature reference 31; cited from earlier work

Question: Which “Annexin V and Ki67 immunohistochemistry” value [1] does the source give for `Nc1nccc2c1ncn2[C@@H]1C=C(CO)[C@@H](O)[C@H]1O` [DZNep, 3-deazaneplanocin A] here?
Answer: Annexin V appears to increase in mesothelioma with increase in DZNep concentration; also recorded: increasing trend in annexin V expression; also recorded: higher ratios of Annexin V to Ki67

Question: What about the “Hematoxylin and eosin staining, cell morphology” value [1] of the same molecule?
Answer: ghost cells and those without nuclei; also recorded: loss of normal morphology and appearance of ghost cells with no nuclei

Question: And the “proliferation / mitochondrial metabolism (MTS assay)” value [1]?
Answer: significant decrease in mesothelioma proliferation; also recorded: decrease in mitochondrial metabolism; also recorded: decreased mitochondrial metabolism

Question: What about the “Annexin V and Ki67 immunohistochemistry” value [2] of the same molecule?
Answer: minimal change in proliferation

Question: What about the “Hematoxylin and eosin staining, cell morphology” value [2] of the same molecule?
Answer: not present in any HCT116 treatments; also recorded: do not show this dose dependent change

Question: And the “proliferation / mitochondrial metabolism (MTS assay)” value [2]?
Answer: no significant decrease in HCT116 proliferation; also recorded: little effect; also recorded: do not appear to respond negatively

Question: And the “effect on HCT116 cells upon treatment” value [3]?
Answer: cell cycle arrest, but not necessarily significant levels of cell death
